The values that follow come from ChEMBL document CHEMBL4190348, “Synthesis of cytotoxically active derivatives based on alkylated 2,3-seco-triterpenoids” (Eur J Med Chem, 2017).

Series [1] can be described thus: Selectivity index, ratio of IC50 for HEK293 cells to IC50 for human Hep2 cells. As to conditions: HEK293 cells versus Hep2 cells, read-out: Ratio IC50. The series is classed as toxicity.
Another series has as its system RD. Kind of series: Cytotoxicity against human TE32 cells assessed as reduction in cell viability incubated for 72 hrs by MTT assay. The series is classed as functional, cell-based.
In series [2] the test system is HCT-116. Kind of series: Induction of apoptosis in human HCT116 cells assessed as increase in caspase-8 activity at 10 uM after 12 hrs by fluorimetric assay. It is filed as functional, cell-based.
The test system of series [3] is HCT-116. Kind of series: Induction of apoptosis in human HCT116 cells assessed as increase in caspase-3/7 activity at 10 uM after 18 hrs by fluorimetric assay. It is filed as functional, cell-based.
Series [4] relates to HCT-116. Kind of series: Induction of apoptosis in human HCT116 cells assessed as early apoptotic cells level at 10 uM incubated for 16 hrs by Annexin V-FICT/PI staining based flow cytometry (reference value: 4.47%). The series is classed as functional.
Series [5] deals with HCT-116. Kind of series: Induction of apoptosis in human HCT116 cells assessed as late apoptotic cells level at 10 uM incubated for 16 hrs by Annexin V-FICT/PI staining based flow cytometry (reference value: 2.51%). The series is classed as functional.
A short description of series [6]: Selectivity index, ratio of IC50 for HEK293 cells to IC50 for human TE32 cells. The series is classed as toxicity. Particulars: HEK293 cells versus TE32 cells, read-out: Ratio IC50.
The test system of a further series is A549. Kind of series: Cytotoxicity against human A549 cells assessed as reduction in cell viability incubated for 72 hrs by MTT assay. It is filed as functional, cell-based. Particulars: A549, 72 h.
Series [7] deals with HCT-116. Kind of series: Induction of apoptosis in human HCT116 cells assessed as increase in caspase-3/7 activity at 10 uM after 24 hrs by fluorimetric assay. The series is classed as functional, cell-based.
For another series, the system named is HEK293. Kind of series: Cytotoxicity against HEK293 cells assessed as reduction in cell viability incubated for 72 hrs by MTT assay. It is filed as cell-based. As to conditions: Homo sapiens, HEK293, 72 h.
Series [8] is described as follows: Selectivity index, ratio of IC50 for HEK293 cells to IC50 for human HCT116 cells. It is filed as toxicity. As to conditions: HEK293 cells versus HCT116 cells, read-out: Ratio IC50.
The nature of series [9]: Cytotoxicity against human MS cells assessed as reduction in cell viability incubated for 72 hrs by MTT assay. It is filed as functional, cell-based.
Series [10] deals with HCT-116. Kind of series: Induction of apoptosis in human HCT116 cells assessed as viable cells level at 10 uM incubated for 16 hrs by Annexin V-FICT/PI staining based flow cytometry (reference value: 91.36%). It is filed as functional.
In series [11] the test system is HCT-116. Kind of series: Cytotoxicity against human HCT116 cells assessed as reduction in cell viability incubated for 72 hrs by MTT assay. The series is classed as functional, cell-based. As to conditions: HCT-116, 72 h.
Another series has as its system HEp-2. Kind of series: Cytotoxicity against human Hep2 cells assessed as reduction in cell viability incubated for 72 hrs by MTT assay. It is filed as functional, cell-based. Particulars: HEp-2, 72 h.
Series [12] can be described thus: Selectivity index, ratio of IC50 for HEK293 cells to IC50 for human MS cells. It is filed as toxicity. As to conditions: HEK293 cells versus MS cells, read-out: Ratio IC50.
In series [13] the test system is HCT-116. Kind of series: Induction of apoptosis in human HCT116 cells assessed as increase in chromatin condensation at 10 uM incubated for 18 hrs by Hoechst 33258 staining based fluorescent inverted microscopy. It is filed as functional.
For series [14], the system named is HCT-116. Kind of series: Induction of apoptosis in human HCT116 cells assessed as increase in mitochondrial membrane depolarization at 10 uM incubated for 18 hrs by rhodamine 123 staining based fluorescent inverted microscopy (reference value: 8%). The series is classed as functional.
Series [15] deals with HCT-116. Kind of series: Induction of apoptosis in human HCT116 cells assessed as increase in cck18 level at 10 uM after 18 hrs by fluorimetric assay. It is filed as functional, cell-based.
Series [16] deals with HCT-116. Kind of series: Induction of apoptosis in human HCT116 cells assessed as necrotic cells level at 10 uM incubated for 16 hrs by Annexin V-FICT/PI staining based flow cytometry (reference value: 1.67%). The series is classed as functional.
Series [17] has as its system HCT-116. Kind of series: Cytotoxicity against human HCT116 cells assessed as reduction in cell viability at 10 uM incubated for 12 to 72 hrs by MTT assay. Particulars: TDE = time-dependent effect. It is filed as functional, cell-based.
Series [18] relates to HCT-116. Kind of series: Induction of apoptosis in human HCT116 cells assessed as viable cells level at 2 uM incubated for 16 hrs by Annexin V-FICT/PI staining based flow cytometry (reference value: 91.36%). The series is classed as functional.
In series [19] the test system is HCT-116. Kind of series: Induction of apoptosis in human HCT116 cells assessed as late apoptotic cells level at 2 uM incubated for 16 hrs by Annexin V-FICT/PI staining based flow cytometry (reference value: 2.51%). It is filed as functional.
The test system of series [20] is HCT-116. Kind of series: Induction of apoptosis in human HCT116 cells assessed as early apoptotic cells level at 2 uM incubated for 16 hrs by Annexin V-FICT/PI staining based flow cytometry (reference value: 4.47%). It is filed as functional.
Series [21] concerns HCT-116. Kind of series: Induction of apoptosis in human HCT116 cells assessed as increase in mitochondrial membrane depolarization at 2 uM incubated for 18 hrs by rhodamine 123 staining based fluorescent inverted microscopy (reference value: 8%). It is filed as functional.
For series [22], the system named is HCT-116. Kind of series: Induction of apoptosis in human HCT116 cells assessed as necrotic cells level at 2 uM incubated for 16 hrs by Annexin V-FICT/PI staining based flow cytometry (reference value: 1.67%). It is filed as functional.

The source made the active and inactive calls. The rule behind the calls is not given here.

Consider `C=C(C=O)[C@@H]1CC[C@]2(C(=O)OC)CC[C@]3(C)[C@H](CC[C@@H]4[C@@](C)(CC#N)[C@H](C(C)(C)C(=O)CBr)CC[C@]43C)[C@@H]12`, for which the selectivity ratio in series [1] turned out to be 17.4; in [6], 24.3; in [8] it was 8.9; in [12] it was 27.2. Further, the IC50 in the series on RD came out at 3.84 µM; in the series on A549, 25.4 µM; with HEK293, 92.3 µM; in series [9], 3.41 µM; with HCT-116 [11], 10.3 µM; in the series with HEp-2 it was 5.28 µM. Besides, the result in the series on HCT-116 [2], in the series on HCT-116 [3], in the series on HCT-116 [7] and in the series on HCT-116 [15] was Active. The Activity came to 25.61% in the series on HCT-116 [4]; 10.07% in the series on HCT-116 [5]; 59.86% with HCT-116 [10]; 28.3% in the series with HCT-116 [13]; 11.6% in the series with HCT-116 [14]; 4.46% in the series with HCT-116 [16]. For the same compound, in the series with HCT-116 [17], the Activity entry was “Tde”.
Take `CC[C@@]1(O)C(=O)OCc2c1cc1n(c2=O)Cc2cc3ccccc3nc2-1` [CAMPTOTHECIN]: the Activity with HCT-116 [18] was 80.88%; in the series on HCT-116 [19] it was 5.07%; in the series with HCT-116 [20], 12.44%; with HCT-116 [21], -30%; in the series with HCT-116 [22] it was 1.6%. In addition, the IC50 in series [9] stood at 1.84 µM; with HCT-116 [11], 1.88 µM; with HEp-2, 3.04 µM.
